Test results taken from patent publication US12404250B2, “PARP inhibitors for treating cancer and asthma” (Oregon Health & Science University, priority 2018, dated 2025).

Legend:
PARP10cat = biological target: T1, PARP10cat (Homo sapiens, UniProt Q53GL7); experiment: In vitro IC50, PARP10cat; assay type: biochemical; conditions: SEM from a minimum of three dose-response experiments
T1 construct: bcat; cat; PARP11
T1 sequence (Q53GL7 806-1025 limits assumed): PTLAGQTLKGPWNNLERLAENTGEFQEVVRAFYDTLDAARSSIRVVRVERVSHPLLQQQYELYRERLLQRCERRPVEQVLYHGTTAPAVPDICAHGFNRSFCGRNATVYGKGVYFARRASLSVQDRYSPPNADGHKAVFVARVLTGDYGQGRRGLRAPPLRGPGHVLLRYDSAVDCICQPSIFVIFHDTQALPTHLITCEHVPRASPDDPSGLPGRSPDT

PARP 1 = PARP 1 (Homo sapiens, UniProt P09874); experiment: In vitro IC50, PARP1; assay type: biochemical; conditions: SEM from a minimum of three dose-response experiments
Chain of PARP 1 (P09874 whole entry): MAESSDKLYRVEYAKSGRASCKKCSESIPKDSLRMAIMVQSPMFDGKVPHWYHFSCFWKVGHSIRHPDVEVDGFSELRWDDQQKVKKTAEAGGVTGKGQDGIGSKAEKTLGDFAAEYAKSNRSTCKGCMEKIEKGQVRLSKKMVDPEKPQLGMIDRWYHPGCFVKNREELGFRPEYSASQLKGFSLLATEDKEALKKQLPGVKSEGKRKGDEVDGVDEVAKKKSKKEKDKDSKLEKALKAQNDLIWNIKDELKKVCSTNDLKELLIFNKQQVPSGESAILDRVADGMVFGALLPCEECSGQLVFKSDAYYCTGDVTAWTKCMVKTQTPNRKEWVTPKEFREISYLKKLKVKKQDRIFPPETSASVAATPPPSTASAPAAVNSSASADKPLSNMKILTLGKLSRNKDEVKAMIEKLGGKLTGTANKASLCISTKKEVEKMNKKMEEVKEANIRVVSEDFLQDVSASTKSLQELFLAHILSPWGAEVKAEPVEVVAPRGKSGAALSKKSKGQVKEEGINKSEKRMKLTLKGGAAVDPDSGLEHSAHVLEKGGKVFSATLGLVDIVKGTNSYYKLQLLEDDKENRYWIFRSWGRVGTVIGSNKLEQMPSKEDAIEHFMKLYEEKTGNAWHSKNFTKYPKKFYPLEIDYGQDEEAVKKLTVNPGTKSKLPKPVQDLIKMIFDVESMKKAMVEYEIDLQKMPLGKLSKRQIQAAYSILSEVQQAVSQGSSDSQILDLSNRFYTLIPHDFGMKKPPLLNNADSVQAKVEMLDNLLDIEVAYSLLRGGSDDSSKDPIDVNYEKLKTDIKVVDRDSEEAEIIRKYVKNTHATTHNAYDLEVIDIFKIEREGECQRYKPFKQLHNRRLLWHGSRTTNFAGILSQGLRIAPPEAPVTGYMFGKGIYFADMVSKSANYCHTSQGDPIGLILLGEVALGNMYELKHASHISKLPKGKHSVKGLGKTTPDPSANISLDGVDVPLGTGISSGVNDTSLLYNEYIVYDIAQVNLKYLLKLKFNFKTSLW

PARP11 = biological target: T2, PARP11 (Homo sapiens, UniProt Q9NR21); experiment: In vitro IC50, PARP11 (plate assay, MARylation of SRPK2 and NXF1); assay type: biochemical; conditions: SEM from a minimum of three dose-response experiments
T2 sequence (Q9NR21 1-338): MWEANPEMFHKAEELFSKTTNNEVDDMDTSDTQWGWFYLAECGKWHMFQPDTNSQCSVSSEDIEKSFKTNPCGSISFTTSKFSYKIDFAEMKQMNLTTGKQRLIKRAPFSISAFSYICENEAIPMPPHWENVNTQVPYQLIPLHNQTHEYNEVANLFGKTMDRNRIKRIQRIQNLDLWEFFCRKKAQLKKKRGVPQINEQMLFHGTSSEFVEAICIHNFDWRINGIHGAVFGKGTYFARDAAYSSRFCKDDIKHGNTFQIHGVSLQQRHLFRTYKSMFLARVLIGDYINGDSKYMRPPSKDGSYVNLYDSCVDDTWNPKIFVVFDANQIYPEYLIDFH
Description: Curves generated using Prism 7 (Graph Pad); error bars indicate ±SEM from at least two replicates.

PARP15 cat = biological target: T3, PARP15 cat (Homo sapiens, UniProt Q460N3); experiment: In vitro IC50, PARP15 cat; assay type: biochemical; conditions: SEM from a minimum of three dose-response experiments
T3 construct: cat-wwe; cat
T3 sequence (Q460N3 482-678 limits assumed): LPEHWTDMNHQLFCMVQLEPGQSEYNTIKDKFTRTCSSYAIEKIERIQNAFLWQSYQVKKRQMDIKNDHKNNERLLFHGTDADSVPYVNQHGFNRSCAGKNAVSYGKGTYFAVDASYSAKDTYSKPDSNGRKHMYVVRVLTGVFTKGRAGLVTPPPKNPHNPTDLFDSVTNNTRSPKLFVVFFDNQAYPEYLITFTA

PARP14 cat-wwe = biological target: T4, PARP14 cat-wwe (Homo sapiens, UniProt Q460N5); experiment: In vitro IC50, PARP14 cat-wwe; assay type: biochemical; conditions: SEM from a minimum of three dose-response experiments
T4 construct: PARP14 cat-wwe; no borders given for the assay protein
T4 sequence (Q460N5 1523-1801 limits assumed): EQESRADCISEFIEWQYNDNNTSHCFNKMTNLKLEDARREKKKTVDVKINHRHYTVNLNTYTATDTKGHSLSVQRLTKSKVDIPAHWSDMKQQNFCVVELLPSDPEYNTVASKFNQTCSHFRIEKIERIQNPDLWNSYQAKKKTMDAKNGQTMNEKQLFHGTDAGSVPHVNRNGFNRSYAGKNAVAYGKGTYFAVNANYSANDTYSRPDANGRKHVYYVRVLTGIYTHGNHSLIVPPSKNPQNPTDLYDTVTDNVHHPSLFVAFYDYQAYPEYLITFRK

PARP 3 = biological target: T5, PARP 3 (Homo sapiens, UniProt Q9Y6F1); experiment: In vitro IC50, PARP3; assay type: biochemical; conditions: SEM from a minimum of three dose-response experiments
T5 sequence (Q9Y6F1 1-533): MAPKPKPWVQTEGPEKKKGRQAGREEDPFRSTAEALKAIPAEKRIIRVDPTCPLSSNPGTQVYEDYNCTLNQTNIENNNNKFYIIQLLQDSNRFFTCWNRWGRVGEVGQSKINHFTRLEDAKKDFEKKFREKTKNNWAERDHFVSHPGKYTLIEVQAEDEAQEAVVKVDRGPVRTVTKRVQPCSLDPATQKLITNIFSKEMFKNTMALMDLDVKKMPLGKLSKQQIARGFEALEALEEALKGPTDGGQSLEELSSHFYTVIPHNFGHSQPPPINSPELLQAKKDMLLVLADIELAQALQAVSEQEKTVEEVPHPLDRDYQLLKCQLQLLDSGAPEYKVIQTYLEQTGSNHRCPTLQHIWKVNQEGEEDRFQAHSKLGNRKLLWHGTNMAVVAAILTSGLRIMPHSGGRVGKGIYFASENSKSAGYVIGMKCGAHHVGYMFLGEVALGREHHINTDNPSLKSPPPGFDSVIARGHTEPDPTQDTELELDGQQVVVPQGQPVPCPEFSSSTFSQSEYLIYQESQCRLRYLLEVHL

PARP5 bcat = biological target: T6, PARP5 bcat (Homo sapiens, UniProt Q9H2K2); experiment: In vitro IC50, PARP5bcat; assay type: biochemical; conditions: SEM from a minimum of three dose-response experiments
T6 construct: bcat
T6 sequence (Q9H2K2 959-1164): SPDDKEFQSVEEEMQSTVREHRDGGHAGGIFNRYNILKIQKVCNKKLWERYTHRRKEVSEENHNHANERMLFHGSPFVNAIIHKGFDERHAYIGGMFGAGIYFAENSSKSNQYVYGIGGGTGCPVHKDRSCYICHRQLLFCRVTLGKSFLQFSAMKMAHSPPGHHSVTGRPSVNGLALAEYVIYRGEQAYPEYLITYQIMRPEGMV

PARP 2 = PARP 2 (Homo sapiens, UniProt Q9UGN5); experiment: In vitro IC50, PARP2; assay type: biochemical; conditions: SEM from a minimum of three dose-response experiments
Chain of PARP 2 (Q9UGN5 whole entry): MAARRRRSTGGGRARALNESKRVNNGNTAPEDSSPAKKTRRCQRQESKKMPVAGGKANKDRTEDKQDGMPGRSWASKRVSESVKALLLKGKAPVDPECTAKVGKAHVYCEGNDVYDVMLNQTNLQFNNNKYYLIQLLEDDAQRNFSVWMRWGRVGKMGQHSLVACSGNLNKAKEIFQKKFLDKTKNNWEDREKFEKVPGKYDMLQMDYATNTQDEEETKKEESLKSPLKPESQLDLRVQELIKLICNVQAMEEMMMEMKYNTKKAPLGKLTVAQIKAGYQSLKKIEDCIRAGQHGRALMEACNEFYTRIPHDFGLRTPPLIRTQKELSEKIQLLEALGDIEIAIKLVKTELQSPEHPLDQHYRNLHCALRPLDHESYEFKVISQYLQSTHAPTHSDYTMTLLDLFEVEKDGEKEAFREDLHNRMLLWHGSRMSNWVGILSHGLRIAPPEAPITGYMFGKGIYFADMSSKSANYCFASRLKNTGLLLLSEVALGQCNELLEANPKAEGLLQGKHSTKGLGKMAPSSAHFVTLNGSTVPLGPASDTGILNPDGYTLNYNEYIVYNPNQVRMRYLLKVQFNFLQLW

PARP1/2 = biological target: T7, PARP1/2 (Homo sapiens, UniProt P09874); experiment: H2O2-stimulated PARP1/2 activity in HEK 293T cells (Western blot); assay type: cell-based; conditions: H2O2 500 μM for 15 min, Western blot with ADPr binding reagent
T7 construct: expressed in transfected cells; host or cells: HEK 293T
T7 sequence (P09874 2-1014): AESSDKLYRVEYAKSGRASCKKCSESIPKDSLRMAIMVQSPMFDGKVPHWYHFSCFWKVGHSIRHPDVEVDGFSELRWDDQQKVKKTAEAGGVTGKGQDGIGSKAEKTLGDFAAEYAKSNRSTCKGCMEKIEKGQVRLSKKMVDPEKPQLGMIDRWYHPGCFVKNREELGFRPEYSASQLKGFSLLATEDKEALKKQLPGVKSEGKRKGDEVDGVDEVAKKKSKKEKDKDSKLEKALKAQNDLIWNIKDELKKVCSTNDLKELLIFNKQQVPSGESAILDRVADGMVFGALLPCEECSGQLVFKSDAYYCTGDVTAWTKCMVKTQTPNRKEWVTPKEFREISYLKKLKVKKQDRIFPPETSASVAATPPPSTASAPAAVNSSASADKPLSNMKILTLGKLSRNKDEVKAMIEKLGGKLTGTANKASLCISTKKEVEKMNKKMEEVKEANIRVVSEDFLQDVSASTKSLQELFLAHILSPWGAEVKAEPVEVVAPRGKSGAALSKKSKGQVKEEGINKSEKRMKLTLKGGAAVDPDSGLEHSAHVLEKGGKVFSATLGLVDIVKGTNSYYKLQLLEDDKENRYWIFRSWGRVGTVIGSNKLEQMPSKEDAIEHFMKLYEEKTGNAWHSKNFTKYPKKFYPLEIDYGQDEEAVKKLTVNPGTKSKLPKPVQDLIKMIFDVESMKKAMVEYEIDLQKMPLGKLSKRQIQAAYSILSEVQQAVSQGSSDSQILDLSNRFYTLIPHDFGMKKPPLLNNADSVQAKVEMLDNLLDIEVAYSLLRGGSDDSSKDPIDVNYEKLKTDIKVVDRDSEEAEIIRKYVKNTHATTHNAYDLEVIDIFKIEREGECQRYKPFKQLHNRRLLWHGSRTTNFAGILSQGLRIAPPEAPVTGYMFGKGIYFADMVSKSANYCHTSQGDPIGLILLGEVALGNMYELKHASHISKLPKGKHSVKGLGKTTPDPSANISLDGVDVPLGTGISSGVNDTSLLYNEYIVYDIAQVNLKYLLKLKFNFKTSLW
Description: Lysates were prepared and PAR/MARylation was analyzed by Western blot with an ADP-ribose (ADPr) binding reagent. Blot was also probed with antibodies for GFP and actin. The band of interest represents auto-PARylated GFP-PARP1. […] Lysates were prepared and PAR/MARylation was analyzed by Western blot with an ADP-ribose (ADPr) binding reagent. Blot was also probed with antibodies for GFP and actin.
Lysates were prepared and PAR/MARylation was analyzed by Western blot with an ADP-ribose (ADPr) binding reagent. Blot was also probed with antibodies for GFP and actin. The band of interest represents auto-PARylated GFP-PARP1.

In the case of `Cc1ccc2c(=O)[nH]c(CSc3ncccn3)nc2c1C` [ITK1, 7,8-dimethyl-2-((pyrimidin-2-ylthio)methyl)quinazolin-4(3H)-one], the IC50 (PARP10cat) is reported as 19.7 ± 0.95 µM, the IC50 (PARP 1) is reported as greater than 30 µM and the IC50 (PARP11) is reported as 0.55 ± 0.11 µM. The IC50 (PARP15 cat) was greater than 30 µM, the IC50 (PARP14 cat-wwe) was 8.55 ± 0.8 µM and the IC50 (PARP 3) was greater than 30 µM. The IC50 (PARP5 bcat) was greater than 10 µM and the IC50 (PARP 2) was 17.4 ± 3.3 µM.

`Cc1ccc2c(=O)[nH]c(CSc3ncnc4nc[nH]c34)nc2c1C` [ITK2, 2-(((7H-purin-6-yl)thio)methyl)-7,8-dimethylquinazolin-4(3H)-one] gave an IC50 (PARP10cat) of 32.8 ± 3.6 µM, an IC50 (PARP 1) greater than 30 µM and an IC50 (PARP11) of 4.52 ± 1.4 µM. For the same compound, the IC50 (PARP15 cat) was greater than 30 µM, the IC50 (PARP14 cat-wwe) was 7.87 ± 0.2 µM and the IC50 (PARP 3) was greater than 30 µM. For the same compound, the IC50 (PARP5 bcat) was greater than 10 µM and the IC50 (PARP 2) was greater than 30 µM.

For `Cc1ccc2c(=O)[nH]c(CSc3nnc(N)[nH]3)nc2c1C` [ITK3, 2-(((5-amino-4H-1,2,4-triazol-3-yl)thio)methyl)-7,8-dimethylquinazolin-4(3H)-one], the IC50 (PARP10cat) was 27.9 ± 3.9 µM, the IC50 (PARP 1) was greater than 30 µM and the IC50 (PARP11) was 13.6 ± 1.4 µM. For the same compound, the IC50 (PARP15 cat) was greater than 30 µM, the IC50 (PARP14 cat-wwe) was 6.73 ± 1.8 µM and the IC50 (PARP 3) was greater than 30 µM. The IC50 (PARP5 bcat) was greater than 10 µM and the IC50 (PARP 2) was greater than 30 µM.

`Cc1ccc2c(=O)[nH]c(CSc3ccc(C(=O)O)cc3)nc2c1C` [ITK4, 4-(((7,8-dimethyl-4-oxo-3,4-dihydroquinazolin-2-yl)methyl)thio)benzoic acid] gave an IC50 (PARP10cat) of 9.29 ± 0.2 µM, an IC50 (PARP 1) greater than 30 µM and an IC50 (PARP11) of 5.5 ± 0.8 µM. The IC50 (PARP15 cat) was 6.85 ± 0.99 µM, the IC50 (PARP14 cat-wwe) was 8.71 ± 0.8 µM and the IC50 (PARP 3) was greater than 30 µM. The IC50 (PARP5 bcat) was greater than 10 µM and the IC50 (PARP 2) was 8.46 ± 1.4 µM.

Compound `C#Cc1ccc2c(=O)[nH]c(CSc3ccc(C(=O)O)cc3)nc2c1C` [ITK5, 4-(((7-ethynyl-8-methyl-4-oxo-3,4-dihydroquinazolin-2-yl)methyl)thio)benzoic acid] has an IC50 (PARP10cat) of 5.4 ± 0.17 µM, an IC50 (PARP 1) greater than 30 µM and an IC50 (PARP11) of 1.62 ± 0.33 µM. For the same compound, the IC50 (PARP15 cat) was 4.03 ± 0.77 µM, the IC50 (PARP14 cat-wwe) was 10.8 ± 0.75 µM and the IC50 (PARP 3) was greater than 30 µM. The IC50 (PARP5 bcat) was greater than 10 µM and the IC50 (PARP 2) was greater than 30 µM.

`CNCc1ccc(-c2[nH]c3cc(F)cc4c3c2CCNC4=O)cc1` [Rucaparib, reference compound] gave an IC50 (PARP11) of 3.4 ± 0.5 µM.

`C[C@]1(c2nc3c(C(N)=O)cccc3[nH]2)CCCN1` [veliparib, reference compound] was tested, and the “Inhibition of H2O2-mediated PARP1 PARylation (PARP½ activity) in cells” value (PARP1/2) was “completely inhibits”.
